Results reported in US20110015206A1, “METHOD OF STABILIZING LIPID-RICH PLAQUE AND METHOD OF PREVENTING RUPTURE THEREOF” (KOWA CO., LTD., priority 2003, published 2011).

Legend:
Format in all cases: in vivo
[1] = tested on: ApoE knockout mice; assay: Azan staining of aortic sinus plaques; details: male ApoE knockout mice, 100 mg/kg orally twice a day for 12 weeks; compared with control group
Description: (§1) Home breeding male ApoE knockout mice, (C57BL/6J-ApoE<tmlUnc>, Jackson Labo™) were bred under common condition, 8 weeks old, were used for test.
(§2) The compound 1 (Example 32, WO98/54153) and control drug, CI-1011 (Example 5, WO 94/26702), were synthesized according to methods described in each publication. The compound 1 and CI-1011 were dissolved (the compound 1) or suspended (CI-1011) in aqueous solution of 0.5% methylcellulose (MC). The solution or suspension was prepared to be a dose of 100 mg/kg and a volume for administration of 0.1 mL/10 g body weight. The control group (no drug administered group) received the solvent, aqueous solution of 0.5% methylcellulose (MC). […]
(§3) After collecting the blood, animals were undergone thoracotomy and 20-G injection needle was punctured into the cardiac apex. […] Using the specimens of Victoria blue-hematoxylin and eosin staining, the internal elastic layer was specified by observation of optical microscope, and the cross-sectional area of the plaques was analyzed (Win ROOF, Mitsuya Shoji K.K.). Similarly, the area of macrophages was measured by using the specimens of macrophage immunohistochemical staining, and a ratio in total area of the plaques (the occupancy rate of macrophages) was calculated. […]

[2] = tested on: ApoE knockout mice; assay: Macrophage immunohistochemical staining (anti-CD11b antibody) of aortic sinus plaques; details: male ApoE knockout mice, 100 mg/kg orally twice a day for 12 weeks; compared with control group
Description: as §1, §2, §3

[3] = tested on: ApoE knockout mice; assay: Sirius Red staining of collagen in aortic sinus plaques; details: male ApoE knockout mice, 100 mg/kg orally twice a day for 12 weeks; compared with control group
Description: as §1, §2, §3

[4] = tested on: ApoE knockout mice; assay: Plasma total cholesterol level in ApoE knockout mice with primary hyperlipidemia; details: male ApoE knockout mice, 100 mg/kg orally twice a day for 12 weeks; mean±standard error; control group 641.8±23.0
Description: as §1
The compound 1 (Example 32, WO98/54153) and control drug, CI-1011 (Example 5, WO 94/26702), were synthesized according to methods described in each publication. The compound 1 and CI-1011 were dissolved (the compound 1) or suspended (CI-1011) in aqueous solution of 0.5% methylcellulose (MC). The solution or suspension was prepared to be a dose of 100 mg/kg and a volume for administration of 0.1 mL/10 g body weight. The control group (no drug administered group) received the solvent, aqueous solution of 0.5% methylcellulose (MC). Prepared drug solution and suspension were administered twice a day, orally, for continuing to 12 weeks (up to 20 weeks old) (total 3 groups, each 15 animal).
After ending the final administration, mice were fasted. In the next morning, mice were laparotomized under pentobarbital sodium anesthesia to expose abdominal vein and collected blood sample 1 mL. The collected blood was centrifuged at 3000 rpm for 15 minutes to collect the plasma. Plasma total cholesterol level was assayed by using cholesterol E-test Wako (cholesterol oxidase DAOS method).
Obtained results are shown in mean±standard error. Test of significance between the control group and the drug-administered group is performed by Dunnett's test.

[5] = tested on: ApoE knockout mice; assay: Cross-sectional area of the plaques in aortic sinus, Victoria blue-hematoxylin and eosin staining; details: male ApoE knockout mice, 100 mg/kg orally twice a day for 12 weeks, mean±standard error, control group 0.23±0.03
Description: as §1, §2, §3

Row | SMILES | Azan staining, composition of the plaques (observation) [1] | macrophage immunohistochemical staining (observation) [2] | Sirius Red staining, collagen fibers (observation) [3] | plasma total cholesterol level [4] | cross-sectional area of the plaques [5]
1 | CC(C)c1cc(C(C)C)c(CC(=O)NS(=O)(=O)Oc2c(C(C)C)cccc2C(C)C)c(C(C)C)c1 [CI-1011, avasimibe] | the plaques consisted largely of red stained macrophage and the blue stained extracellular matrix was scanty | the macrophages were observed abundantly in whole plaques | smaller numbers of collagen fibers were observed as compared with the control group | 360.3 ± 19.4 mg/dL | 0.09±0.01 mm^2
2 | CSc1cc(C)nc(SC)c1NC(=O)CN1CCN(CCSc2nc3ccccc3[nH]2)CC1 [compound 1, 2-[4-[2-(benzimidazol-2-ylthio)ethyl]piperazin-1-yl]-N-[2,4-bis(methylthio)-6-methyl-3-pyridyl]acetamide] | the plaques consisted of small area of cellular components and large numbers of surrounding extracellular matrix | the macrophages were occasionally observed | compactly arranged collagen fibers were observed in whole plaques | 535.0 ± 22.8 mg/dL | 0.22±0.03 mm^2
